Measurements from PubChem BioAssay (NCI).
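1) Cells in 96-well plates. 2) Compound, 48 h, 5 concentrations. 3) Linear interpolation between surrounding doses. 4) Unreached endpoint = highest concentration. TGI marks complete inhibition of growth.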

How the values were obtained:
Experiment in all cases: NCI tumour cell line growth inhibition, 48 h
DMS 114 small cell lung = system: DMS 114 small cell lung
SK-OV-3 ovarian = system: SK-OV-3 ovarian
NCI-H23 lung = system: NCI-H23 lung
SNB-75 CNS = system: SNB-75 CNS
UO-31 renal = system: UO-31 renal
MOLT-4 leukemia = system: MOLT-4 leukemia
XF 498 CNS = system: XF 498 CNS
LOX IMVI melanoma = system: LOX IMVI melanoma
KM20L2 colon = system: KM20L2 colon
HT29 colon = system: HT29 colon
HCT-15 colon = system: HCT-15 colon
HOP-92 NSCLC = system: HOP-92 NSCLC
SF-295 CNS = system: SF-295 CNS
K-562 leukemia = system: K-562 leukemia
SNB-19 CNS = system: SNB-19 CNS
CAKI-1 renal = system: CAKI-1 renal
SNB-78 CNS = system: SNB-78 CNS
DLD-1 colon = system: DLD-1 colon
KM12 colon = system: KM12 colon
NCI-H460 lung = system: NCI-H460 lung
TK-10 renal = system: TK-10 renal
SK-MEL-2 melanoma = system: SK-MEL-2 melanoma
EKVX NSCLC = system: EKVX NSCLC
COLO 205 colon = system: COLO 205 colon
HOP-62 NSCLC = system: HOP-62 NSCLC
M19-MEL melanoma = system: M19-MEL melanoma
A549 NSCLC = system: A549 NSCLC
SN12C renal = system: SN12C renal
HCC-2998 colon = system: HCC-2998 colon
OVCAR-3 ovarian = system: OVCAR-3 ovarian
RXF 393 renal = system: RXF 393 renal
SF-539 CNS = system: SF-539 CNS
M14 melanoma = system: M14 melanoma
U251 CNS = system: U251 CNS
HOP-18 NSCLC = system: HOP-18 NSCLC
MALME-3M melanoma = system: MALME-3M melanoma
OVCAR-8 ovarian = system: OVCAR-8 ovarian
ACHN renal = system: ACHN renal
HL-60(TB) leukemia = system: HL-60(TB) leukemia
SK-MEL-5 melanoma = system: SK-MEL-5 melanoma
OVCAR-4 ovarian = system: OVCAR-4 ovarian
RPMI-8226 leukemia = system: RPMI-8226 leukemia
OVCAR-5 ovarian = system: OVCAR-5 ovarian
NCI-H226 lung = system: NCI-H226 lung
786-0 renal = system: 786-0 renal
UACC-62 melanoma = system: UACC-62 melanoma
CCRF-CEM leukemia = system: CCRF-CEM leukemia
SW-620 colon = system: SW-620 colon
LXFL 529 NSCLC = system: LXFL 529 NSCLC
A498 renal = system: A498 renal
HCT-116 colon = system: HCT-116 colon
IGROV1 ovarian = system: IGROV1 ovarian
UACC-257 melanoma = system: UACC-257 melanoma
DMS 273 small cell lung = system: DMS 273 small cell lung
SK-MEL-28 melanoma = system: SK-MEL-28 melanoma
SF-268 CNS = system: SF-268 CNS
NCI-H522 lung = system: NCI-H522 lung

Molecule `COc1nc(NC2OC(COC(C)=O)C(OC(C)=O)C(OC(C)=O)C2OC(C)=O)c2c(OC(C)=O)c(C)c(=O)oc2n1` (centres undefined) has a TGI (DMS 114 small cell lung) greater than 100 µM, a TGI (SK-OV-3 ovarian) greater than 100 µM and a TGI (NCI-H23 lung) greater than 100 µM. It also gave a TGI (SNB-75 CNS) greater than 100 µM, a TGI (UO-31 renal) greater than 100 µM and a TGI (MOLT-4 leukemia) greater than 100 µM. The TGI (XF 498 CNS) was greater than 100 µM, the TGI (LOX IMVI melanoma) was greater than 100 µM and the TGI (KM20L2 colon) was greater than 100 µM. For the same molecule, the TGI (HT29 colon) was greater than 100 µM, the TGI (HCT-15 colon) was greater than 100 µM and the TGI (HOP-92 NSCLC) was greater than 100 µM. For the same molecule, the TGI (SF-295 CNS) was greater than 100 µM, the TGI (K-562 leukemia) was greater than 100 µM and the TGI (SNB-19 CNS) was greater than 100 µM. The TGI (CAKI-1 renal) was greater than 100 µM, the TGI (SNB-78 CNS) was greater than 100 µM and the TGI (DLD-1 colon) was greater than 100 µM. It also gave a TGI (KM12 colon) greater than 100 µM, a TGI (NCI-H460 lung) of 3.15 µM and a TGI (TK-10 renal) greater than 100 µM. The TGI (SK-MEL-2 melanoma) was greater than 100 µM, the TGI (EKVX NSCLC) was greater than 100 µM and the TGI (COLO 205 colon) was greater than 100 µM. It also gave a TGI (HOP-62 NSCLC) greater than 100 µM, a TGI (M19-MEL melanoma) greater than 100 µM and a TGI (A549 NSCLC) greater than 100 µM. It also gave a TGI (SN12C renal) greater than 100 µM, a TGI (HCC-2998 colon) greater than 100 µM and a TGI (OVCAR-3 ovarian) greater than 100 µM. For the same molecule, the TGI (RXF 393 renal) was greater than 100 µM, the TGI (SF-539 CNS) was greater than 100 µM and the TGI (M14 melanoma) was greater than 100 µM. The TGI (U251 CNS) was greater than 100 µM, the TGI (HOP-18 NSCLC) was greater than 100 µM and the TGI (MALME-3M melanoma) was greater than 100 µM. It also gave a TGI (OVCAR-8 ovarian) greater than 100 µM, a TGI (ACHN renal) of 3.16 µM and a TGI (HL-60(TB) leukemia) greater than 100 µM. It also gave a TGI (SK-MEL-5 melanoma) greater than 100 µM, a TGI (OVCAR-4 ovarian) greater than 100 µM and a TGI (RPMI-8226 leukemia) greater than 100 µM. For the same molecule, the TGI (OVCAR-5 ovarian) was greater than 100 µM, the TGI (NCI-H226 lung) was greater than 100 µM and the TGI (786-0 renal) was greater than 100 µM. For the same molecule, the TGI (UACC-62 melanoma) was greater than 100 µM, the TGI (CCRF-CEM leukemia) was greater than 100 µM and the TGI (SW-620 colon) was greater than 100 µM. The TGI (LXFL 529 NSCLC) was greater than 100 µM, the TGI (A498 renal) was 3.18 µM and the TGI (HCT-116 colon) was greater than 100 µM. For the same molecule, the TGI (IGROV1 ovarian) was greater than 100 µM and the TGI (UACC-257 melanoma) was greater than 100 µM.

For `CCCc1nc(N)nc(C(=O)Nc2cccc(C(F)(F)F)c2)c1CC`, the TGI (DMS 114 small cell lung) was greater than 100 µM, the TGI (NCI-H23 lung) was greater than 100 µM and the TGI (SNB-75 CNS) was greater than 100 µM. For the same molecule, the TGI (UO-31 renal) was greater than 100 µM, the TGI (MOLT-4 leukemia) was greater than 100 µM and the TGI (XF 498 CNS) was greater than 100 µM. For the same molecule, the TGI (LOX IMVI melanoma) was greater than 100 µM, the TGI (DMS 273 small cell lung) was greater than 100 µM and the TGI (KM20L2 colon) was greater than 100 µM. The TGI (HT29 colon) was greater than 100 µM, the TGI (HCT-15 colon) was greater than 100 µM and the TGI (HOP-92 NSCLC) was greater than 100 µM. It also gave a TGI (SF-295 CNS) greater than 100 µM, a TGI (K-562 leukemia) greater than 100 µM and a TGI (SNB-19 CNS) greater than 100 µM. It also gave a TGI (CAKI-1 renal) greater than 100 µM, a TGI (SNB-78 CNS) greater than 100 µM and a TGI (DLD-1 colon) greater than 100 µM. The TGI (KM12 colon) was greater than 100 µM, the TGI (NCI-H460 lung) was greater than 100 µM and the TGI (TK-10 renal) was greater than 100 µM. It also gave a TGI (SK-MEL-2 melanoma) greater than 100 µM, a TGI (EKVX NSCLC) greater than 100 µM and a TGI (SK-MEL-28 melanoma) greater than 100 µM. The TGI (HOP-62 NSCLC) was greater than 100 µM, the TGI (M19-MEL melanoma) was greater than 100 µM and the TGI (A549 NSCLC) was greater than 100 µM. It also gave a TGI (SN12C renal) greater than 100 µM, a TGI (HCC-2998 colon) greater than 100 µM and a TGI (OVCAR-3 ovarian) greater than 100 µM. For the same molecule, the TGI (RXF 393 renal) was greater than 100 µM, the TGI (SF-539 CNS) was greater than 100 µM and the TGI (M14 melanoma) was greater than 100 µM. It also gave a TGI (U251 CNS) greater than 100 µM, a TGI (HOP-18 NSCLC) greater than 100 µM and a TGI (MALME-3M melanoma) greater than 100 µM. The TGI (SF-268 CNS) was greater than 100 µM, the TGI (OVCAR-8 ovarian) was greater than 100 µM and the TGI (ACHN renal) was greater than 100 µM. The TGI (HL-60(TB) leukemia) was greater than 100 µM, the TGI (SK-MEL-5 melanoma) was greater than 100 µM and the TGI (OVCAR-4 ovarian) was greater than 100 µM. It also gave a TGI (RPMI-8226 leukemia) greater than 100 µM, a TGI (OVCAR-5 ovarian) greater than 100 µM and a TGI (NCI-H226 lung) greater than 100 µM. It also gave a TGI (786-0 renal) greater than 100 µM, a TGI (UACC-62 melanoma) greater than 100 µM and a TGI (SW-620 colon) greater than 100 µM. The TGI (A498 renal) was greater than 100 µM, the TGI (HCT-116 colon) was greater than 100 µM and the TGI (IGROV1 ovarian) was greater than 100 µM. It also gave a TGI (UACC-257 melanoma) greater than 100 µM.

With `Cc1cc(NS(=O)(=O)c2ccc(Nc3c4ccccc4nc4c(C(=O)Nc5ccc(S(N)(=O)=O)cc5)cccc34)cc2)no1` the TGI (DMS 114 small cell lung) was 77.3 µM, the TGI (SK-OV-3 ovarian) was greater than 100 µM and the TGI (NCI-H23 lung) was greater than 100 µM. It also gave a TGI (SNB-75 CNS) greater than 100 µM, a TGI (UO-31 renal) greater than 100 µM and a TGI (MOLT-4 leukemia) of 78.9 µM. It also gave a TGI (XF 498 CNS) of 57.9 µM, a TGI (LOX IMVI melanoma) greater than 100 µM and a TGI (DMS 273 small cell lung) greater than 100 µM. The TGI (KM20L2 colon) was greater than 100 µM, the TGI (HT29 colon) was greater than 100 µM and the TGI (HCT-15 colon) was greater than 100 µM. For the same molecule, the TGI (HOP-92 NSCLC) was 81.6 µM, the TGI (SF-295 CNS) was greater than 100 µM and the TGI (K-562 leukemia) was greater than 100 µM. The TGI (SNB-19 CNS) was 84.9 µM, the TGI (CAKI-1 renal) was greater than 100 µM and the TGI (SNB-78 CNS) was 60 µM. It also gave a TGI (DLD-1 colon) greater than 100 µM, a TGI (KM12 colon) of 50.6 µM and a TGI (NCI-H460 lung) greater than 100 µM. For the same molecule, the TGI (TK-10 renal) was greater than 100 µM, the TGI (SK-MEL-2 melanoma) was 69.3 µM and the TGI (EKVX NSCLC) was greater than 100 µM. The TGI (COLO 205 colon) was greater than 100 µM, the TGI (SK-MEL-28 melanoma) was 83.9 µM and the TGI (HOP-62 NSCLC) was greater than 100 µM. For the same molecule, the TGI (M19-MEL melanoma) was 64.8 µM, the TGI (A549 NSCLC) was greater than 100 µM and the TGI (SN12C renal) was greater than 100 µM. It also gave a TGI (OVCAR-3 ovarian) of 31.7 µM, a TGI (RXF 393 renal) greater than 100 µM and a TGI (SF-539 CNS) of 61.2 µM. For the same molecule, the TGI (M14 melanoma) was greater than 100 µM, the TGI (U251 CNS) was 57.4 µM and the TGI (HOP-18 NSCLC) was greater than 100 µM. For the same molecule, the TGI (MALME-3M melanoma) was 53.1 µM, the TGI (SF-268 CNS) was greater than 100 µM and the TGI (OVCAR-8 ovarian) was greater than 100 µM. It also gave a TGI (ACHN renal) greater than 100 µM, a TGI (SK-MEL-5 melanoma) greater than 100 µM and a TGI (OVCAR-4 ovarian) of 51.1 µM. The TGI (NCI-H522 lung) was 54.1 µM, the TGI (RPMI-8226 leukemia) was greater than 100 µM and the TGI (OVCAR-5 ovarian) was greater than 100 µM. For the same molecule, the TGI (786-0 renal) was greater than 100 µM, the TGI (UACC-62 melanoma) was 55.8 µM and the TGI (CCRF-CEM leukemia) was 79.9 µM. For the same molecule, the TGI (SW-620 colon) was greater than 100 µM, the TGI (LXFL 529 NSCLC) was 44.8 µM and the TGI (A498 renal) was greater than 100 µM. It also gave a TGI (HCT-116 colon) greater than 100 µM, a TGI (IGROV1 ovarian) greater than 100 µM and a TGI (UACC-257 melanoma) greater than 100 µM.
